# Laboratory results: PubChem BioAssay AID1963868 (Molecular Pharmacology Branch, DTP, NCI, 2024)
# pIC50: −log10 of the molar value.
# System: KRAS PDC tumor spheroids (HUVEC+MSC), viability
# Assay: Anticancer human tumor 254851-301-R-J1-PDC patient-derived colon carcinoma cell line growth inhibition [KRAS2]
# Details: for viability, T/C: stronger effect = lower value
# Text: Multicellular complex tumor spheroid response to RAS pathway inhibitors in combination with a targeted agents in patient-derived cell lines with oncogenic KRAS variants from multiple cancer types
# A high-throughput screen of multi-cell type tumor spheroids was designed to identify active combinations of targeted small molecules and KRAS pathway inhibitors. Complex spheroids include a stromal component modeled by human endothelial cells (HUVEC) and fibroblasts modeled by human mesenchymal stem cells (MSCs). The concentration ranges selected for each drug and investigational agent were based upon clinically achievable concentrations if the clinical Cmax of the agent was known.
# Compounds. The drugs and investigational agents: BI-3406 (NSC825286), BAY-293 (NSC824723), batoprotafib (TNO155; NSC825523), sotorasib (AMG 510; NSC818433), MRTX1257 (NSC819558), elimusertib (BAY 1895344; NSC800525), molibresib (GSK525762; NSC774829), temuterkib (LY3214996; NSC803410), venetoclax (NSC766270), alisertib (NSC759677), olaparib (NSC753686), talazoparib (NSC767125), erdafitinib (NSC781556), ipatasertib (NSC767898), cabozantinib (NSC761068), nintedanib (NSC756659), abemaciclib (NSC768073), docetaxel (NSC628503), trametinib (NSC758246), and sapanisertib (NSC764658) were obtained from the National Cancer Institute (NCI) Developmental Therapeutics Program Chemical Repository. The FDA-approved anticancer drug set is available from the Developmental Therapeutics Program. […] The stock solutions were prepared in dimethyl sulfoxide (DMSO, Sigma-Aldrich, St. Louis, MO, cat. D2650) at 800-fold the tested concentration and stored at -70 degrees C prior to their use. All drugs and investigational agents were tested over a range starting from a high concentration at or near the clinical Cmax and decreasing in half-log increments. If the clinical Cmax for an agent had not been determined, the highest concentration tested was 10 microM.
# Cell Culture. All cells were maintained in an incubator at 37 degrees C and 5% CO2 with 95% humidity. The PDC lines were cultured according to standard operating procedures established by the NCI PDMR (https://pdmr.cancer.gov/sops/default.htm). Briefly, all PDCs were thawed and cultured in Matrigel-coated flasks prepared with a working solution of 1X Ham's F-12 nutrient mix, without supplementation (Invitrogen, Waltham, MA, cat. 11765054), 100 U/mL penicillin-streptomycin (Invitrogen, cat. 15140122), and 2.5% Matrigel (Corning Inc., Corning, NY, cat. 354248) for the first three passages. All PDCs were cultured in complete DMEM/F-12 media containing advanced DMEM/F-12 (Invitrogen, cat. 12634028), 4.9% defined fetal bovine serum, heat inactivated (HyClone Laboratories Inc., Logan, UT, cat. SH30070.03HI), 389 ng/mL hydrocortisone (Sigma-Aldrich, cat. H4001), 9.7 ng/mL human EGF recombinant protein (Invitrogen, cat. PHG0313), 23.4 microg/mL adenine (Sigma-Aldrich, cat. A2786), 97.3 U/mL penicillin-streptomycin (Invitrogen, cat. 15140122), 1.9 mM L-glutamine (Invitrogen, cat. 25030081), and 9.7 microM Y-27632 dihydrochloride (Tocris Bioscience, Bristol, United Kingdom, cat. 1254). The PDCs were cultured in complete DMEM/F12 media without 9.7 microM Y-27632 dihydrochloride for at least two passages prior to the screen. The established cell line HOP-62 was cultured in RPMI 1640 medium, HEPES (Invitrogen, cat. 22400105) with 10% defined fetal bovine serum (HyClone Laboratories Inc., cat. SH30070.03) and 2 mM L-glutamine (Invitrogen, cat. 25030081). The pooled donor HUVEC were cultured in endothelial cell growth medium 2 (PromoCell, Heidelberg, Germany, cat. C-22011) and the hMSC were cultured in mesenchymal stem cell growth medium 2 (PromoCell, cat. C-28009). For all experiments, HUVEC and hMSC were used at passages </=5, while the malignant cell lines were used at passages </=15. […]
# [1] = curve of first compound, second compound 0.1 µM
# [2] = curve of first compound, second compound 0.316 µM
# [3] = curve of first compound, second compound 1 µM
# [4] = curve of first compound, second compound 3.16 µM
# [5] = curve of first compound, second compound 10 µM
# [6] = second compound 0.1 µM, first compound 0.0316 µM
# [7] = second compound 0.1 µM, first compound 0.1 µM
# [8] = second compound 0.316 µM, first compound 0.0316 µM
# [9] = second compound 0.316 µM, first compound 0.1 µM
# [10] = second compound 1 µM, first compound 0.0316 µM
# [11] = second compound 1 µM, first compound 0.1 µM
# [12] = second compound 3.16 µM, first compound 0.0316 µM
# [13] = second compound 3.16 µM, first compound 0.1 µM
# [14] = second compound 10 µM, first compound 0.0316 µM
# [15] = second compound 10 µM, first compound 0.1 µM
# [16] = second compound 0.1 µM, first compound 0.316 µM
# [17] = second compound 0.1 µM, first compound 1 µM
# [18] = second compound 0.1 µM, first compound 3.16 µM
# [19] = second compound 0.1 µM, first compound 10 µM
# [20] = second compound 0.316 µM, first compound 0.316 µM
# [21] = second compound 0.316 µM, first compound 1 µM
# [22] = second compound 0.316 µM, first compound 3.16 µM
# [23] = second compound 0.316 µM, first compound 10 µM
# [24] = second compound 1 µM, first compound 0.316 µM
# [25] = second compound 1 µM, first compound 1 µM
# [26] = second compound 1 µM, first compound 3.16 µM
# [27] = second compound 1 µM, first compound 10 µM
# [28] = second compound 3.16 µM, first compound 0.316 µM
# [29] = second compound 3.16 µM, first compound 1 µM
# [30] = second compound 3.16 µM, first compound 3.16 µM
# [31] = second compound 3.16 µM, first compound 10 µM
# [32] = second compound 10 µM, first compound 0.316 µM
# [33] = second compound 10 µM, first compound 1 µM
# [34] = second compound 10 µM, first compound 3.16 µM
# [35] = second compound 10 µM, first compound 10 µM
# 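Also: spheroids exposed to compounds for seven days before readout.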
# 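For viability, T/C in this document: 100% = DMSO vehicle control luminescence of the spheroids.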
SMILES,pIC50 [1],pIC50 [2],pIC50 [3],pIC50 [4],pIC50 [5],"viability, T/C [6]","viability, T/C [7]","viability, T/C [8]","viability, T/C [9]","viability, T/C [10]","viability, T/C [11]","viability, T/C [12]","viability, T/C [13]","viability, T/C [14]","viability, T/C [15]","viability, T/C [16]","viability, T/C [17]","viability, T/C [18]","viability, T/C [19]","viability, T/C [20]",also measured
CN(C)C/C=C/C(=O)Nc1cc2c(Nc3ccc(F)c(Cl)c3)ncnc2cc1O[C@H]1CCOC1 + C=CC(=O)N1CCN(c2nc(=O)n(-c3c(C)ccnc3C(C)C)c3nc(-c4c(O)cccc4F)c(F)cc23)C(C)C1,< 7.00,< 7.00,< 7.00,< 7.00,< 7.00,97.2%,93%,93.4%,75.2%,83.6%,73.5%,100%,82.5%,95.6%,74.4%,,,,,,"viability, T/C (second compound 0.1 µM, first compound 0.000316 µM): 110%; viability, T/C (second compound 0.1 µM, first compound 0.001 µM): 103%; viability, T/C (second compound 0.1 µM, first compound 0.00316 µM): 99.5%; viability, T/C (second compound 0.1 µM, first compound 0.01 µM): 93.8%; viability, T/C (second compound 0.316 µM, first compound 0.000316 µM): 104%; viability, T/C (second compound 0.316 µM, first compound 0.001 µM): 102%; viability, T/C (second compound 0.316 µM, first compound 0.00316 µM): 96.5%; viability, T/C (second compound 0.316 µM, first compound 0.01 µM): 89.6%; viability, T/C (second compound 1 µM, first compound 0.000316 µM): 99.5%; viability, T/C (second compound 1 µM, first compound 0.001 µM): 108%; viability, T/C (second compound 1 µM, first compound 0.00316 µM): 86.1%; viability, T/C (second compound 1 µM, first compound 0.01 µM): 87.2%; viability, T/C (second compound 3.16 µM, first compound 0.000316 µM): 101%; viability, T/C (second compound 3.16 µM, first compound 0.001 µM): 98.7%; viability, T/C (second compound 3.16 µM, first compound 0.00316 µM): 87.1%; viability, T/C (second compound 3.16 µM, first compound 0.01 µM): 93.8%; viability, T/C (second compound 10 µM, first compound 0.000316 µM): 109%; viability, T/C (second compound 10 µM, first compound 0.001 µM): 99.3%; viability, T/C (second compound 10 µM, first compound 0.00316 µM): 91.9%; viability, T/C (second compound 10 µM, first compound 0.01 µM): 94.6%"
COc1cc(Nc2ncc3c(n2)-c2ccc(Cl)cc2C(c2c(F)cccc2OC)=NC3)ccc1C(=O)O + CC1OCC2(CCN(c3cnc(Sc4ccnc(N)c4Cl)c(N)n3)CC2)C1N,7.06,7.10,7.12,7.21,7.38,91.7%,39.8%,81.1%,37%,86.1%,33.1%,70.9%,30.7%,58.1%,23.1%,28.8%,24.9%,17.1%,7.2%,28.2%,"viability, T/C [21]: 22.6%; viability, T/C [22]: 13.8%; viability, T/C [23]: 6.88%; viability, T/C [24]: 29.1%; viability, T/C [25]: 23.1%; viability, T/C [26]: 14.6%; viability, T/C [27]: 7.07%; viability, T/C [28]: 23.9%; viability, T/C [29]: 21.7%; viability, T/C [30]: 12.3%; viability, T/C [31]: 5.89%; viability, T/C [32]: 21.1%; viability, T/C [33]: 19.8%; viability, T/C [34]: 13.8%; viability, T/C [35]: 6.31%"
COc1cc2nccc(Oc3ccc(NC(=O)C4(C(=O)Nc5ccc(F)cc5)CC4)cc3)c2cc1OC,,,,,,,,,,,,,,,,,,,,,"viability, T/C (compound 0.0316 µM): 103% [middle of 5 runs]; viability, T/C (compound 0.1 µM): 107% [middle of 5 runs]; viability, T/C (compound 0.316 µM): 105% [middle of 5 runs]; viability, T/C (compound 1 µM): 106% [middle of 5 runs]; pIC50 (curve of compound): < 5.00"
CC(C)NCC(C(=O)N1CCN(c2ncnc3c2C(C)CC3O)CC1)c1ccc(Cl)cc1 (stereo not given) + COc1cc2nc(C)nc(NC(C)c3cc(N)cc(C(F)(F)F)c3)c2cc1OC1CCOC1,< 5.00,< 5.00,5.69,5.50,6.29,107%,99.7%,101%,98.2%,85.2%,100%,85.6%,83.2%,75.3%,82%,99.7%,91.5%,39.8%,75.7%,84.3%,"viability, T/C [21]: 84.1%; viability, T/C [22]: 31.1%; viability, T/C [23]: 71.4%; viability, T/C [24]: 82.2%; viability, T/C [25]: 78.5%; viability, T/C [26]: 32.2%; viability, T/C [27]: 13.7%; viability, T/C [28]: 88.4%; viability, T/C [29]: 44.5%; viability, T/C [30]: 32.5%; viability, T/C [31]: 75.1%; viability, T/C [32]: 56.1%; viability, T/C [33]: 41.2%; viability, T/C [34]: 15.5%; viability, T/C [35]: 29.4%"
